Results taken from the NIST ThermoML archive (doi:10.1021/je900596d).

Settings: 357.01 K, Liquid, Vibrating tube method

FC(F)=C(F)C(F)(F)F [hexafluoropropene]
Settings	mass density [kg/m3]
3815.9 kPa	942.63
3841.4 kPa	944.76
3866.1 kPa	946.85
3891.2 kPa	948.86
3916.1 kPa	950.85
3941.3 kPa	952.87
3966.7 kPa	954.74
3992.1 kPa	956.67
4032.7 kPa	959.68
4052.9 kPa	961.12
4073.2 kPa	962.41
4094 kPa	963.87
4114.8 kPa	965.29
4135 kPa	966.6
4155.1 kPa	967.92
4175.4 kPa	969.27
4195.5 kPa	970.62
4215.6 kPa	971.88
4258.3 kPa	974.59
4279.4 kPa	975.81
4299.6 kPa	977.03
4320.4 kPa	978.34
4340.8 kPa	979.7
4361.8 kPa	980.83
4383.2 kPa	982.1
4404.3 kPa	983.28
4445.8 kPa	985.59
4467.1 kPa	986.71
4488.7 kPa	987.99
4929.3 kPa	1009.65
4970.6 kPa	1011.35
5012.8 kPa	1013.28
5053.2 kPa	1015.04
5094.4 kPa	1016.71
5178.4 kPa	1020.12
5218.9 kPa	1021.7
5262 kPa	1023.52
5302.8 kPa	1025.13
5344.2 kPa	1026.56
5426.4 kPa	1029.68
5468.6 kPa	1031.33
5509.4 kPa	1032.71
5595.1 kPa	1035.91
5636.8 kPa	1037.33
5678.3 kPa	1038.78
5720.2 kPa	1040.29
5761.9 kPa	1041.7
5802.7 kPa	1043
5844 kPa	1044.41
5885.2 kPa	1045.79
5926.3 kPa	1047.08
5966.4 kPa	1048.43
6079.9 kPa	1052.05
6121.3 kPa	1053.27
6161.6 kPa	1054.49
6202.1 kPa	1055.73
6242.6 kPa	1057.02
6283 kPa	1058.17
6323.7 kPa	1059.35
6365.4 kPa	1060.53
6405.9 kPa	1061.73
6446.1 kPa	1062.93
6487.1 kPa	1063.92
6527.7 kPa	1065.18
6568.3 kPa	1066.33
6649.5 kPa	1068.55
6689.8 kPa	1069.61
6730.6 kPa	1070.82
6771.8 kPa	1071.89
6812.8 kPa	1072.89
6854 kPa	1074.05
6894.2 kPa	1075.07
6976.2 kPa	1077.12
7016.9 kPa	1078.17
7059.1 kPa	1079.19
7099.3 kPa	1080.34
7141 kPa	1081.32
7182 kPa	1082.35
7223.7 kPa	1083.32
7265.2 kPa	1084.37
7306.5 kPa	1085.33
7391.5 kPa	1087.34
7432.1 kPa	1088.27
7472.8 kPa	1089.26
7514.5 kPa	1090.2
7555.9 kPa	1091.18
7596.5 kPa	1092.11
7637.6 kPa	1093.07
7760.7 kPa	1095.83
7802.6 kPa	1096.76
7843.1 kPa	1097.59
7885.2 kPa	1098.49
7925.7 kPa	1099.42
7967.5 kPa	1100.24
8050.7 kPa	1102.02
8094 kPa	1102.97
8134 kPa	1103.77
8175.6 kPa	1104.71
8217.3 kPa	1105.6
8258 kPa	1106.39
8301 kPa	1107.38
8342.7 kPa	1108.09
8385.4 kPa	1108.93
8428.9 kPa	1109.88
8510.3 kPa	1111.46
8552.8 kPa	1112.27
8592.9 kPa	1113.04
8634.2 kPa	1113.83
8675.9 kPa	1114.7
8717.3 kPa	1115.43
8760 kPa	1116.3
8843.1 kPa	1117.91
8884.8 kPa	1118.68
8926.5 kPa	1119.39
8969.2 kPa	1120.21
9010.2 kPa	1120.94
9055 kPa	1121.82
9096.9 kPa	1122.57
9138.6 kPa	1123.29
9223.4 kPa	1124.87
9264.9 kPa	1125.67
9307.3 kPa	1126.46
9350.7 kPa	1127.19
9393 kPa	1127.83
9476.5 kPa	1129.45
9518.3 kPa	1130.09
9558.9 kPa	1130.8
9598.9 kPa	1131.49
9640.9 kPa	1132.16
9683.8 kPa	1132.95
9726.5 kPa	1133.66
9769.9 kPa	1134.38
9810.5 kPa	1135.04
